Assay results: the supplement of paper PMC7600603
Blank lines part the entries; values can stand above or below the molecule they belong to.

Assays:
DLD1 NRF2-WT [1] = experiment: drug sensitivity score (DSS) viability (DSS score); higher = more sensitive; extreme values may be limits of the assay; details: 72 h; CellTiter-Glo viability
Method in brief: (§1)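 Isogenic DLD1 colorectal cancer cells, either NRF2 wild-type or CRISPR gain-of-function, were grown in DMEM with 10% FBS. They were exposed in 384-well plates to library compounds at 5 concentrations spanning a 10,000-fold range. After 72 h, viability was read by CellTiter-Glo on a Pherastar FS reader and normalised to vehicle wells and 100-μM positive-control wells. EC50 and drug sensitivity score (a normalised area under the curve) came from four-parameter logistic dose-response fits.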

DLD1 NRF2-WT [2] = details: 72 h; CellTiter-Glo viability
Method in brief: as §1

DLD1 NRF2-GOF [3] = experiment: drug sensitivity score (DSS) cytotoxicity (DSS score); higher = more toxic; extreme values may be limits of the assay; details: 72 h; CellTox Green cytotoxicity
Method in brief: (§2)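 In 384-well plates, isogenic DLD1 cells with NRF2 wild-type or CRISPR-edited status, grown in DMEM with 10% FBS, received library compounds at 5 concentrations spanning a 10,000-fold range. At 72 h, CellTox Green signals were read on a Pherastar FS reader and scaled between vehicle wells and 100-μM positive-control wells. Cytotoxicity endpoints, TC50 and a drug sensitivity score based on normalised area under the curve, came from logistic dose-response fits.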

DLD1 NRF2-WT [4] = experiment: as above; details: 72 h; CellTox Green cytotoxicity
Method in brief: as §2

DLD1 NRF2-GOF [5] = experiment: TC50 cytotoxicity; higher = less toxic; details: 72 h; CellTox Green cytotoxicity
Method in brief: as §2

DLD1 NRF2-WT [6] = experiment: TC50 cytotoxicity; higher = less toxic; details: 72 h; CellTox Green cytotoxicity
Method in brief: as §2

Compound: CCC(C)n1ncn(-c2ccc(N3CCN(c4ccc(OCC5COC(Cn6cncn6)(c6ccc(Cl)cc6Cl)O5)cc4)CC3)cc2)c1=O (stereo unspecified) [Itraconazole]
- drug sensitivity score (DLD1 NRF2-WT [1]): 0.4
- EC50 viability (DLD1 NRF2-WT [2]): > 5 µM
- drug sensitivity score (DLD1 NRF2-GOF [3]): 0
- drug sensitivity score (DLD1 NRF2-WT [4]): 0
- TC50 cytotoxicity (DLD1 NRF2-GOF [5]): > 5 µM
- TC50 cytotoxicity (DLD1 NRF2-WT [6]): > 5 µM

Compound: CC(C)N(CCCNC(=O)Nc1ccc(C(C)(C)C)cc1)C[C@H]1O[C@@H](n2cc(Br)c3c(N)ncnc32)[C@H](O)[C@@H]1O [SGC0946]
- drug sensitivity score (DLD1 NRF2-WT [1]): 0.9
- drug sensitivity score (DLD1 NRF2-GOF [3]): 0
- drug sensitivity score (DLD1 NRF2-WT [4]): 0
- TC50 cytotoxicity (DLD1 NRF2-GOF [5]): > 10 µM
- TC50 cytotoxicity (DLD1 NRF2-WT [6]): > 10 µM

Compound: C[C@@H]1CN(CC(=O)Nc2ccc3c(c2)Cc2cccc(-c4cc(=O)cc(N5CCOCC5)o4)c2S3)C[C@H](C)O1
- drug sensitivity score (DLD1 NRF2-WT [1]): 0
- EC50 viability (DLD1 NRF2-WT [2]): > 25 µM
- drug sensitivity score (DLD1 NRF2-GOF [3]): 0
- drug sensitivity score (DLD1 NRF2-WT [4]): 0
- TC50 cytotoxicity (DLD1 NRF2-GOF [5]): > 25 µM
- TC50 cytotoxicity (DLD1 NRF2-WT [6]): > 25 µM

Compound: CCCCCCCCCCCCCCCCCCOP(=O)([O-])OC1CC[N+](C)(C)CC1 [Perifosine]
- drug sensitivity score (DLD1 NRF2-WT [1]): 0.3
- EC50 viability (DLD1 NRF2-WT [2]): > 2.5 µM
- drug sensitivity score (DLD1 NRF2-GOF [3]): 0.6
- drug sensitivity score (DLD1 NRF2-WT [4]): 0.9
- TC50 cytotoxicity (DLD1 NRF2-GOF [5]): > 2.5 µM
- TC50 cytotoxicity (DLD1 NRF2-WT [6]): > 2.5 µM

Compound: O=C(O)C(=O)O.[NH-][C@@H]1CCCC[C@H]1[NH-].[Pt+2] [Oxaliplatin]
- drug sensitivity score (DLD1 NRF2-WT [1]): 3
- EC50 viability (DLD1 NRF2-WT [2]): 25.3 µM

Compound: CC(=O)OC[C@H]1O[C@@H]([S-])[C@H](OC(C)=O)[C@@H](OC(C)=O)[C@@H]1OC(C)=O.CCP(CC)CC.[Au+] [Auranofin]
- drug sensitivity score (DLD1 NRF2-WT [1]): 5.5
- EC50 viability (DLD1 NRF2-WT [2]): 0.622 µM
- drug sensitivity score (DLD1 NRF2-GOF [3]): 0
- drug sensitivity score (DLD1 NRF2-WT [4]): 2.3
- TC50 cytotoxicity (DLD1 NRF2-GOF [5]): > 2.5 µM
- TC50 cytotoxicity (DLD1 NRF2-WT [6]): 0.818 µM

Compound: CO[C@H]1C[C@@H]2CC[C@@H](C)[C@@](O)(O2)C(=O)C(=O)N2CCCC[C@H]2C(=O)O[C@H]([C@H](C)C[C@@H]2CC[C@@H](O)[C@H](OC)C2)CC(=O)[C@H](C)/C=C(\C)[C@@H](O)[C@@H](OC)C(=O)[C@H](C)C[C@H](C)/C=C/C=C/C=C/1C [Sirolimus]
- drug sensitivity score (DLD1 NRF2-WT [1]): 3.1

Compound: COc1c(C)cnc(Cn2cnc3c(Cl)nc(N)nc32)c1C [BIIB021]
- drug sensitivity score (DLD1 NRF2-WT [1]): 20.6
- EC50 viability (DLD1 NRF2-WT [2]): 0.149 µM
- drug sensitivity score (DLD1 NRF2-GOF [3]): 0
- drug sensitivity score (DLD1 NRF2-WT [4]): 0
- TC50 cytotoxicity (DLD1 NRF2-GOF [5]): > 10 µM
- TC50 cytotoxicity (DLD1 NRF2-WT [6]): > 10 µM

Compound: COc1ccc(CCc2nc3cc(-c4c(C)noc4C)ccc3n2C[C@H](C)N2CCOCC2)cc1Cl [SGC-CBP30]
- drug sensitivity score (DLD1 NRF2-WT [1]): 2.2
- EC50 viability (DLD1 NRF2-WT [2]): 9.91 µM
- drug sensitivity score (DLD1 NRF2-GOF [3]): 0.2
- drug sensitivity score (DLD1 NRF2-WT [4]): 0.8
- TC50 cytotoxicity (DLD1 NRF2-GOF [5]): > 25 µM
- TC50 cytotoxicity (DLD1 NRF2-WT [6]): > 25 µM

The next lines start with results.

- EC50 viability (DLD1 NRF2-WT [2]): 4.5 µM
Compound: Cc1ccc(NC(=O)c2ccc(CN3CCN(C)CC3)cc2)cc1Nc1nccc(-c2cccnc2)n1 [Imatinib]
- drug sensitivity score (DLD1 NRF2-WT [1]): 1.2
- drug sensitivity score (DLD1 NRF2-GOF [3]): 0
- drug sensitivity score (DLD1 NRF2-WT [4]): 0
- TC50 cytotoxicity (DLD1 NRF2-GOF [5]): > 10 µM
- TC50 cytotoxicity (DLD1 NRF2-WT [6]): > 10 µM

- EC50 viability (DLD1 NRF2-WT [2]): 0.191 µM
Compound: Cn1c(Nc2ccc(C(F)(F)F)cc2)nc2cc(Oc3ccnc(-c4ncc(C(F)(F)F)[nH]4)c3)ccc21 [NVP-RAF265]
- drug sensitivity score (DLD1 NRF2-WT [1]): 3.2

- EC50 viability (DLD1 NRF2-WT [2]): 3.75 µM
Compound: CC(C)c1c(C(=O)Nc2ccccc2)c(-c2ccccc2)c(-c2ccc(F)cc2)n1CC[C@@H](O)C[C@@H](O)CC(=O)O [Atorvastatin]
- drug sensitivity score (DLD1 NRF2-WT [1]): 2.5

- EC50 viability (DLD1 NRF2-WT [2]): 3.39 µM
Compound: CNC(=O)c1ccccc1Sc1ccc2c(/C=C/c3ccccn3)n[nH]c2c1 [Axitinib]
- drug sensitivity score (DLD1 NRF2-WT [1]): 2.4
- drug sensitivity score (DLD1 NRF2-GOF [3]): 0
- drug sensitivity score (DLD1 NRF2-WT [4]): 0.3
- TC50 cytotoxicity (DLD1 NRF2-GOF [5]): > 10 µM
- TC50 cytotoxicity (DLD1 NRF2-WT [6]): > 10 µM

- EC50 viability (DLD1 NRF2-WT [2]): 4.17 µM
Compound: CC[C@H](CO)Nc1nc(NCc2ccccc2)c2ncn(C(C)C)c2n1 [Seliciclib]
- drug sensitivity score (DLD1 NRF2-WT [1]): 1.1
- drug sensitivity score (DLD1 NRF2-GOF [3]): 0
- drug sensitivity score (DLD1 NRF2-WT [4]): 0
- TC50 cytotoxicity (DLD1 NRF2-GOF [5]): > 10 µM
- TC50 cytotoxicity (DLD1 NRF2-WT [6]): > 10 µM

- EC50 viability (DLD1 NRF2-WT [2]): 0.102 µM
Compound: CCS(=O)(=O)Nc1ccc(Oc2ccc(F)cc2F)c(-c2cn(C)c(=O)c3[nH]ccc23)c1 [Mivebresib]
- drug sensitivity score (DLD1 NRF2-WT [1]): 14.7
- drug sensitivity score (DLD1 NRF2-GOF [3]): 0
- drug sensitivity score (DLD1 NRF2-WT [4]): 0
- TC50 cytotoxicity (DLD1 NRF2-GOF [5]): > 10 µM
- TC50 cytotoxicity (DLD1 NRF2-WT [6]): > 10 µM

- EC50 viability (DLD1 NRF2-WT [2]): 0.0058 µM
Compound: CC(C)C[C@H](NC(=O)[C@H](Cc1ccccc1)NC(=O)c1cnccn1)B(O)O [Bortezomib]
- drug sensitivity score (DLD1 NRF2-WT [1]): 27.1
- drug sensitivity score (DLD1 NRF2-GOF [3]): 23.1
- drug sensitivity score (DLD1 NRF2-WT [4]): 27.2
- TC50 cytotoxicity (DLD1 NRF2-GOF [5]): 0.0117 µM
- TC50 cytotoxicity (DLD1 NRF2-WT [6]): 0.0057 µM

- EC50 viability (DLD1 NRF2-WT [2]): > 50 µM
Compound: O=C(CCNC(=O)c1ccc(OC(F)(F)F)cc1)N[C@@H]1CCCc2ccccc21 [ML390]
- drug sensitivity score (DLD1 NRF2-WT [1]): 1.9
- drug sensitivity score (DLD1 NRF2-GOF [3]): 0
- drug sensitivity score (DLD1 NRF2-WT [4]): 0
- TC50 cytotoxicity (DLD1 NRF2-GOF [5]): > 50 µM
- TC50 cytotoxicity (DLD1 NRF2-WT [6]): > 50 µM

- EC50 viability (DLD1 NRF2-WT [2]): 0.273 µM
Compound: Cc1cc(OCc2nnc(SC3CCCC3)n2-c2cccnc2)ccc1-c1ccc(S(C)(=O)=O)cc1 [NMS-873]
- drug sensitivity score (DLD1 NRF2-WT [1]): 5.5
